Assay results taken from patent US8754057B2, “Inhibition of apoptosis-specific eIF-5A(eIF-5A1″) with antisense oligonucleotides and siRNA as anti-inflammatory therapeutics” (Senesco Technologies, Inc., priority 2003, dated 2014).
*1 amine or outer side, *2 acyl side, *3 side chain or, on linkers, in order; H or OH if unused. Where a SMILES comes first, the peptide text is derived from it. Bridges are numbered along the chain shown (N, C = ends). Roman numbers before positions name the chains, in order. [ ]: non-standard residue; d: D form. Actinocin(9to1) = Cc1c2oc3c(C)ccc(C(=O)[*:1])c3nc-2c(C(=O)[*:2])c(N)c1=O; NMeV = CN[C@H](C(=O)O)C(C)C; Sar = CNCC(=O)O

Legend:
Assay type in all cases: cell-based, human
RKO cells = experiment: Western blots of RKO cells treated with Actinomycin D; details: 0.25 μg/ml Actinomycin D for 0, 3, 7, 24, and 48 hours
Protocol: FIG. 43 provides Western blots of protein extracted from RKO cells treated with 0.25 μg/ml Actinomycin D for 0, 3, 7, 24, and 48 hours. The top panel depicts a Western blot using anti-p53 as the primary antibody. The middle panel depicts a Western blot using anti-apoptosis-specific eIF-5A as the primary antibody.

[1] = system: lamina cribrosa cell line #506; details: 48 hours; Hoescht staining
Protocol: FIG. 83 is a graph showing percent apoptosis of lamina cribrosa cell line #506 in response to treatment with camptothecin and TNF-α. Lamina cribrosa cell line #506 cells were seeded at 40,000 cells per well onto an 8-well culture slide. Three days later the confluent LC cells were treated with either 10 ng/ml TNF-α, 50 μM camptothecin, or 10 ng/ml TNF-α plus 50 μM camptothecin. An equivalent volume of DMSO, a vehicle control for camptothecin, was added to the untreated control cells. The cells were stained with Hoescht 33258 48 hours after treatment and viewed by fluorescence microscopy using a UV filter. Cells with brightly stained condensed or fragmented nuclei were counted as apoptotic.
Apoptosis was induced in lamina cribrosa cells using a combination of 50 μM camptothecin (Sigma) and 10 ng/ml TNF-α (Leinco Technologies).
Since TNF-α is believed to play an important role during the glaucomatous process, the susceptibility of LC cells to the cytotoxic effects of TNF-α was examined. Confluent LC cells were exposed to either camptothecin, TNF-α, or a combination of camptothecin and TNF-α for 48 hours (FIG. 83).

[2] = system: apoptosis-specific eIF-5A; experiment: Western blot of HT-29 cells treated with IFN gamma; details: at 8 hours
Protocol: FIG. 81 is a western blot of HT-29 cells treated with IFN gamma for 8 and 24 hours.
Priming the cells with interferon gamma prior to TNF treatment causes the cells to produce more IL-8 than either treatment alone. This may be due to the known upregulation of the TNF receptor 1 in response to interferon, so ‘priming’ the cells with interferon allows them to respond to TNF better since the cells have more receptors. siRNA against apoptosis-specific eIF-5A had no effect on IL-8 production in response to TNF alone (previous experiment) however, the siRNA blocked almost all IL-8 produced in response to interferon as well as a significant amount of the IL-8 produced as a result of the combined treatment of interferon and TNF. […] FIG. 81 is a western showing up-regulation (4 fold at 8 hours) of apoptosis-specific eIF-5A in response to interferon gamma in HT-29 cells.

[3] = system: lamina cribrosa cell line #506; experiment: Hoescht staining apoptosis of siRNA-transfected lamina cribrosa cells treated with TNF-α and camptothecin; details: LC #506, 72 h after siRNA transfection, 24 h 10 ng/ml TNF-α plus 50 μM camptothecin
Protocol: Lamina cribrosa cell line #506 cells were seeded at 7500 cells per well onto an 8-well culture slide. Three days later the LC cells were transfected with either GAPDH siRNA, apoptosis-specific eIF-5A siRNAs #1-4 (SEQ ID NO:30-33), or control siRNA #5 (SEQ ID NO:34). 72 hours after transfection, the transfected cells were treated with 10 ng/ml TNF-α plus 50 μM camptothecin. Twenty-four hours later the cells were stained with Hoescht 33258 and viewed by fluorescence microscopy using a UV filter. Cells with brightly stained condensed or fragmented nuclei were counted as apoptotic. This graph represents the average of n=4 independent experiments.
Following transfection, RKO and lamina cribrosa cells were incubated for 72 hours prior to collection of cellular extract for Western blot analysis. In order to determine the effectiveness of the siRNAs directed against apoptosis-specific eIF-5A to block apoptosis, lamina cribrosa cells were treated with 50 μM of camptothecin (Sigma) and 10 ng/ml of TNF-α (Leinco Technologies) to induce apoptosis either 48 or 72 hours after transfection. The cells were stained with Hoescht either 24 or 48 hours later in order to determine the percentage of cells undergoing apoptosis.
Small inhibitory RNAs (siRNAs) directed against human apoptosis-specific eIF-5A were used to specifically suppress expression of eIF5A in lamina cribrosa cells. Six siRNAs were generated by in vitro transcription using the Silencer™ siRNA Construction Kit (Ambion Inc.), Four siRNAs were generated against human apoptosis-specific eIF-5A (siRNAs #1 to #4). […] The siRNAs were generated according to the manufacturer's protocol. The eIF5A and control siRNA targets had the following sequences: siRNA #1 5′ […] 3′ (SEQ ID NO: 81); siRNA #2 5′ […] 3′ (SEQ ID NO: 82); siRNA #3 5′ […] 3′ (SEQ ID NO: 83); siRNA #4 5′ […] 3′ (SEQ ID NO: 84); siRNA #5′ […] 3′ (SEQ ID NO: 85). Lamina cribrosa cells were transfected with siRNA using LipofectAMINE 2000.
Lamina cribrosa cells were transfected when cell confluence was at 40 to 70% and were generally seeded onto 8-well culture slides at 7500 cells per well three days prior to transfection. Transfection medium sufficient for one well of an 8-well culture slide was prepared by diluting 25.5 proles of siRNA to a final volume of 21.2 μl in Opti-Mem (Sigma). 0.425 μl of Lipofectamine 2000 was diluted to a final volume of 21.2 μl in Opti-Mem and incubated for 7 to 10 minutes at room temperature. The diluted Lipofectamine 2000 mixture was then added to the diluted siRNA mixture and incubated together at room temperature for 20 to 30 minutes, The cells were washed once with serum-free media before adding 135 μl of serum-free media to the cells and overlaying 42.4 μl of transfection medium. […]

[4] = system: lamina cribrosa cell line #506; experiment: TUNEL labeling of siRNA-transfected LC cells treated with TNF-α and camptothecin; details: LC #506, TNF-α and camptothecin 24 h
Protocol: Lamina cribrosa cell line #506 cells were seeded at 7500 cells per well onto an 8-well culture slide. Three days later the LC cells were transfected with either apoptosis-specific eIF-5A siRNA #1 (SEQ ID NO:30) or control siRNA #5 (SEQ ID NO:34). 72 hours after transfection, the transfected cells were treated with 10 ng/ml TNF-α plus 50 μM camptothecin. Twenty-four hours later the cells were stained with Hoescht 33258 and DNA fragmentation was evaluated in situ using the terminal deoxynucleotidyl transferase-mediated dUTP-digoxigenin nick end labeling (TUNEL) method. Panel A represents the slide observed by fluorescence microscopy using a fluorescein filter to visualize TUNEL-labeling of the fragmented DNA of apoptotic cells. Panel B represents the same slide observed by through a UV filter to visualize the Hoescht-stained nuclei. The results are representative of two independent experiments. All pictures were taken at 400 times magnification.
Transfected cells that had been treated with TNF-α and camptothecin for 24 hours were stained with Hoescht 33258 in order to determine the percentage of cells undergoing apoptosis. Briefly, cells were fixed with a 3:1 mixture of absolute methanol and glacial acetic acid and then incubated with Hoescht stain (0.5 μg/ml Hoescht 33258 in PBS). After a 10 minute incubation in the dark, the staining solution was discarded, the chambers separating the wells of the culture slide were removed, and the slide was washed 3 times for 1 minute with deionized water. After washing, a few drops of Mcllvaine's buffer (0.021 M citric acid, 0.058 M Na2HPO4.7H2O; pH 5.6) was added to the cells and overlaid with a coverslip. The stained cells were viewed under a fluorescent microscope using a UV filter. Cells with brightly stained or fragmented nuclei were scored as apoptotic. A minimum of 200 cells were counted per well. The DeadEnd™ Fluorometric TUNEL (Promega) was also used to detect the DNA fragmentation that is a characteristic feature of apoptotic cells. Following Hoescht staining, the culture slide was washed briefly with distilled water, and further washed by immersing the slide twice for 5 minutes in PBS (137 mM NaCl, 2.68 mM KCl, 1.47 mM KH2PO4, 8.1 mM Na2HPO4), blotting the slide on paper towel between washes. The cells were permeabilized by immersing them in 0.2% Triton X-100 in PBS for 5 minutes. The cells were then washed again by immersing the slide twice for 5 minutes in PBS and blotting the slide on paper towel between washes. 25 μl of equilibration buffer [200 mM potassium cacodylate (pH 6.6), 25 mM. Tris-HCl (pH 6.6), 0.2 mM dithiothreitol, 0.25 mg/ml bovine serum albumin, and 2.5 mM cobalt chloride] was added per well and incubated for 5 to 10 minutes. […] Any cells with brightly stained or fragmented nuclei were scored as apoptotic. […]

Cc1c2oc3c(C)ccc(C(=O)N[C@@H]4C(=O)N[C@H](C(C)C)C(=O)N5CCC[C@H]5C(=O)N(C)CC(=O)N(C)[C@@H](C(C)C)C(=O)O[C@@H]4C)c3nc-2c(C(=O)N[C@@H]2C(=O)N[C@H](C(C)C)C(=O)N3CCC[C@H]3C(=O)N(C)CC(=O)N(C)[C@@H](C(C)C)C(=O)O[C@@H]2C)c(N)c1=O [Actinomycin D] (I: T[dV]P[Sar][NMeV] / II: T[dV]P[Sar][NMeV]; ester I:1-I:C, II:1-II:C; linker I:N-II:N via Actinocin(9to1))
apoptosis-specific eIF-5A protein (RKO cells): upregulated
p53 protein (RKO cells): upregulated

TNF-α
cytotoxic to LC cells [1]: not cytotoxic

interferon gamma: interferon gamma (Roche Diagnostics)
up-regulation of apoptosis-specific eIF-5A [2]: 4 fold

siRNA #2: siRNA against human apoptosis-specific eIF-5A (SEQ ID NO:31); target 5′ AAGATCGTCGAGATGTCTACT 3′ (SEQ ID NO: 82) (AAGAUCGUCGAGAUGUCUACUUC; unmodified RNA; listed as Homo sapiens)
reduce apoptosis of LC cells [3]: 35%

siRNA #3: siRNA against human apoptosis-specific eIF-5A (SEQ ID NO:32); target 5′ AAGGTCCATCTGGTTGGTATT 3′ (SEQ ID NO: 83) (AAGGUCCAUCUGGUUGGUAUUGA; unmodified RNA; listed as Homo sapiens)
reduce apoptosis of LC cells [3]: 50%

siRNA #4: siRNA against human apoptosis-specific eIF-5A (SEQ ID NO:33); target 5′ AAGCTGGACTCCTCCTACACA 3′ (SEQ ID NO: 84) (AAGCTGGACTCCTCCTACACAAT; listed as DNA, chemistry not fully specified; listed as Homo sapiens)
reduce apoptosis of LC cells [3]: 69%
protection from apoptosis relative to the control siRNA ([4]; TUNEL): greater than 60%

siRNA #5: control siRNA (SEQ ID NO:34) with the reverse sequence of siRNA #1; does not target eIF5A (AAAGTCGACCTTCAGTAAGGATT; listed as DNA, chemistry not fully specified; listed as Homo sapiens)
LC cells positive for TUNEL staining ([4]; 3 days after transfection): 46%
